# Test results: article PMC6271849, “Quantitative Analysis of the Flavonoid Glycosides and Terpene Trilactones in the Extract of Ginkgo biloba and Evaluation of Their Inhibitory Activity towards Fibril Formation of β-Amyloid Peptide” (Molecules, 2014)
# Biological target: T1, amyloid β peptide (Aβ42) (Homo sapiens, UniProt P05067)
# T1 construct: gene APP; Aβ42 peptide
# Test: biochemical
# T1 sequence (P05067 672-713 limits assumed): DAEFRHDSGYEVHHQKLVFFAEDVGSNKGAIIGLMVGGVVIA
row,IC50 [µM],Compound
1,32.6 ± 4.83,"C[C@@H]1O[C@@H](Oc2c(-c3ccc(O)c(O)c3)oc3cc(O)cc(O)c3c2=O)[C@H](O[C@@H]2O[C@H](COC(=O)/C=C/c3ccc(O)cc3)[C@@H](O)[C@H](O)[C@H]2O)[C@H](O)[C@H]1O [compound 6, quercetin 3-O-α-(6′′′-p-coumaroylglucopyranosyl-β-1,2-rhamnopyranoside)]"
2,67.1 ± 11.7,"C[C@@H]1O[C@@H](Oc2c(-c3ccc(O)c(O)c3)oc3cc(O)cc(O)c3c2=O)[C@H](O[C@@H]2O[C@H](CO)[C@@H](O)[C@H](O)[C@H]2O)[C@H](O)[C@H]1O [compound 2, quercetin 3-O-α-L-(β-D-glucopyranosyl)-(1,2)-rhamnopyranoside]"

row,Compound,IC50 [µM]
1,"C[C@@H]1O[C@@H](OC[C@H]2O[C@@H](Oc3c(-c4ccc(O)c(O)c4)oc4cc(O)cc(O)c4c3=O)[C@H](O)[C@@H](O)[C@@H]2O)[C@H](O)[C@H](O)[C@H]1O [compound 1, quercetin 3-O-β-D-rutinoside]",33 ± 4.84
